# Read-outs that look alike come from different tables or passages of the source.
# Assays:
# [1] = Cytotoxicity assay in HEp-2 cells; format: cell-based; settings: human, uninfected HEp-2 cells, CellTiter Glo
# Method: (§1) Cytotoxicity of tested compounds is determined in uninfected HEp-2 cells in parallel with the antiviral activity using the cell viability reagent in a similar fashion as described before for other cell types (Cihlar et al., Antimicrob Agents Chemother. 2008, 52(2):655-65.). The same protocol as for the determination of antiviral activity is used for the measurement of compound cytotoxicity except that the cells are not infected with RSV. Instead, an uninfected cell mixture at the same density is added at 20 ul/well to plates containing prediluted compounds, also at 100 nl/sample. Assay plates are then incubated for 4 days followed by a cell viability test using the same CellTiter Glo reagent addition and measurement of luminescent readouts. Untreated cell and cells treated at 2 uM puromycin (Sigma, St. Louis, Mo.) serve as 100% and 0% cell viability control, respectively. The percent of cell viability is calculated for each tested compound concentration relative to the 0% and 100% controls and the CC50 value is determined by non-linear regression as a compound concentration reducing the cell viability by 50%.
# MT-4 cells = test: Cytotoxicity assay in MT-4 cells; format: cell-based; settings: 5 days, Cell-Titer Glo
# Method: (§2) The MT-4 cell line was obtained from the NIH AIDS Research and Reference Reagent Program (Germantown, Md.) and cultured in RPMI-1640 medium (Irvine Scientific, Santa Ana, Calif., Cat #9160) supplemented with 10% FBS, 100 units/mL penicillin, 100 units/mL streptomycin, and 2 mM L-Glutamine. The MT-4 cells were passaged twice per week to maintain cell densities below 0.6×10^6 cells/mL. Complete RPMI-1640 media containing 100× concentrations of 3-fold serially diluted compound, ranging from 26 nM to 530 μM, were stamped in quadruplicate into black 384-well plates. After compound addition, 2×10^3 MT-4 cells were added to each well using a MicroFlo liquid dispenser (BioTek, Winooski, Vt.) and the cells were cultured for 5 days at 37° C. in a 5% CO2 incubator. Following the incubation the cells were allowed to equilibrate to 25° C. and cell viability was determined by adding 25 μL of Cell-Titer Glo viability reagent. The mixture was incubated for 10 minutes at 25° C., and the luminescence signal was quantified on a Victor Luminescence plate reader. The CC50 value is defined as the concentration of compound that reduces cell viability by 50% as determined by the Cell-Titer Glo signal. The data were analyzed using Pipeline Pilot Plate Data Analytics Collection software (Version 7.0, Accelrys, San Diego, Calif.). CC50 values were calculated from a non-linear regression analysis using a 4-parameter sigmoidal dose-response equation: Y=Bottom+(Top−Bottom)/(1+10^[(Log CC50−X)*HillSlope]) where the Top and Bottom were fixed at 100% and 0% cell viability, respectively. CC50 values were calculated as the average±standard deviation of 3 independent experiments.
# RSV strain A2 = test: Anti-RSV activity, infectious cytopathic cell protection assay in HEp-2 cells; format: cell-based, Respiratory Syncytial Virus (RSV)
# Method: Antiviral activity against RSV is determined using an infectious cytopathic cell protection assay in HEp-2 cells. In this assay, compounds inhibiting viral infection and/or replication produce a cytoprotective effect against the virus-induced cell killing that can be quantified using a cell viability reagent. The techniques used here are novel adaptations of methods described in published literature (Chapman et al., Antimicrob Agents Chemother. 2007, 51(9):3346-53.)
# HEp-2 cells are obtained from ATCC (Manassas, VI) and maintained in MEM media supplemented with 10% fetal bovine serum and penicillin/streptomycin. Cells are passaged twice a week and kept at subconfluent stage. Commercial stock of RSV strain A2 (Advanced Biotechnologies, Columbia, Md.) is titered before compound testing to determine the appropriate dilution of the virus stock that generates desirable cytopathic effect in HEp-2 cells.
# For antiviral tests, HEp-2 cells are grown in large cell culture flasks to near confluency but not fully so. The compounds to be tested are prediluted in DMSO in 384-well compound dilution plates, either in an 8 or 40 sample per plate standardized dose response format. 3-fold serial dilution increments of each test compound are prepared in the plates and test samples are transferred via acoustic transfer apparatus (Echo, Labcyte) at 100 nl per well into cell culture assay 384-well plates. Each compound dilution is transferred in single or quadruplicate samples into dry assay plates, which are stored until assay is ready to go. The positive and negative controls are laid out in opposite on ends of the plate in vertical blocks (1 column).
# Subsequently, an infectious mixture is prepared using an appropriate dilution of virus stock previously determined by titration with cells at a density of 50,000/ml and 20 uL/well is added to test plates w/compounds via automation (uFlow, Biotek). Each plate includes negative and positive controls (16 replicates each) to create 0% and 100% virus inhibition standards, respectively. Following the infection with RSV, testing plates are incubated for 4 days in a 37° C. cell culture incubator. After the incubation, a cell viability reagent, Cell TiterGlo (Promega, Madison, Wis.) is added to the assay plates, which are incubated briefly, and a luminescent readout is measured (Envision, Perkin Elmer) in all the assay plates. The RSV-induced cytopathic effect, percentage inhibition, is determined from the levels of remaining cell viability. These numbers are calculated for each tested concentration relative to the 0% and 100% inhibition controls, and the EC50 value for each compound is determined by non-linear regression as a concentration inhibiting the RSV-induced cytopathic effect by 50%. Various potent anti-RSV tool compounds are used as positive controls for antiviral activity.
# [2] = biological target: T1, RSV ribonucleoprotein (RNP) complexes (Human respiratory syncytial virus A, UniProt P28887); test: RSV RNP assay (inhibition of RSV RNP transcription); format: biochemical, RSV A2; settings: 90 minute incubation at 30° C., total radiolabeled transcripts
# T1 construct: The supernatant (S3) fraction, containing the enriched RSV RNP complexes, was collected; endogenous in cells; host or cells: HEp-2 cells infected with RSV A2; detergent-extracted crude S3 fraction
# Method: RSV ribonucleoprotein (RNP) complexes were prepared from a method modified from Mason at al (1). HEp-2 cells were plated at a density of 7.1×10^4 cells/cm^2 in MEM+10% fetal bovine serum (FBS) and allowed to attach overnight at 37° C. (5% CO2). Following attachment, the cells were infected with RSV A2 (M01=5) in 35 mL MEM+2% FBS. At 20 hours post-infection, the media was replaced with MEM+2% FBS supplemented with 2 μg/mL actinomycin D and returned to 37° C. for one hour. The cells were then washed once with PBS and treated with 35 mL of PBS+250 μg/mL lyso-lecithin for one minute, after which all liquid was aspirated. The cells were harvested by scrapping them into 1.2 mL of buffer A [50 mM TRIS acetate (pH 8.0), 100 mM potassium acetate, 1 mM DTT and 2 μg/mL actinomycin D] and lysed by repeated passage through an 18 gauge needle (10 times). The cell lysate was placed in ice for 10 minutes and then centrifuged at 2400g for 10 minutes at 4° C. The supernatant (S1) was removed and the pellet (P1) was disrupted in 600 uL of Buffer B [10 mM TRIS acetate (pH 8.0), 10 mM potassium acetate and 1.5 mM MgCl2] supplemented with 1% Triton X-100 by repeated passage through an 18 gauge needle (10 times). The resuspended pellet was placed in ice for 10 minutes and then centrifuged at 2400g for 10 minutes at 4° C. The supernatant (S2) was removed and the pellet (P2) was disrupted in 600 uL of Buffer B supplemented with 0.5% deoxycholate and 0.1% Tween 40. The resuspended pellet was placed in ice for 10 minutes and then centrifuged at 2400g for 10 minutes at 4° C. The supernatant (S3) fraction, containing the enriched RSV RNP complexes, was collected and the protein concentration determined by UV absorbance at 280 nm. Aliquoted RSV RNP S3 fractions were stored at −80° C.
# Transcription reactions contained 25 μg of crude RSV RNP complexes in 30 μL of reaction buffer [50 mM TRIS-acetate (pH 8.0), 120 mM potassium acetate, 5% glycerol, 4.5 mM MgCl2, 3 mM DTT, 2 mM ethyleneglycol-bis(2-aminoethylether)-tetraacetic acid (EGTA), 50 μg/mL BSA, 2.5 U RNasin (Promega), ATP, GTP, UTP, CTP and 1.5 uCi [α-^32P] NTP (3000 Ci/mmol)]. The radiolabeled nucleotide used in the transcription assay was selected to match the nucleotide analog being evaluated for inhibition of RSV RNP transcription. Cold, competitive NTP was added at a final concentration of one-half its Km (ATP=20 μM, GTP=12.5 μM, UTP=6 μM and CTP=2 μM). The three remaining nucleotides were added at a final concentration of 100 μM.
# To determine whether nucleotide analogs inhibited RSV RNP transcription, compounds were added using a 6 step serial dilution in 5-fold increments. Following a 90 minute incubation at 30° C., the RNP reactions were stopped with 350 μL of Qiagen RLT lysis buffer and the RNA was purified using a Qiagen RNeasy 96 kit. Purified RNA was denatured in RNA sample loading buffer (Sigma) at 65° C. for 10 minutes and run on a 1.2% agarose/MOPS gel containing 2M formaldehyde. The agarose gel was dried and exposed to a Storm phosphorimager screen and developed using a Storm phosphorimager (GE Healthcare). The concentration of compound that reduced total radiolabeled transcripts by 50% (IC50) was calculated by non-linear regression analysis of two replicates.
# [3] = Cytotoxicity assay in MT-4 cells; format: cell-based; settings: human, Cell-Titer Glo
# Method: as §2
# HEp-2 cells = test: Cytotoxicity assay in HEp-2 cells; format: cell-based; settings: uninfected HEp-2 cells, 4 days, CellTiter Glo
# Method: as §1
# [4] = human respiratory syncytial virus, 96 h, HEp-2 cells infected with RSV A2, 4 days, Cell TiterGlo, read-out: EC50
# T1 sequence (P28887 whole entry): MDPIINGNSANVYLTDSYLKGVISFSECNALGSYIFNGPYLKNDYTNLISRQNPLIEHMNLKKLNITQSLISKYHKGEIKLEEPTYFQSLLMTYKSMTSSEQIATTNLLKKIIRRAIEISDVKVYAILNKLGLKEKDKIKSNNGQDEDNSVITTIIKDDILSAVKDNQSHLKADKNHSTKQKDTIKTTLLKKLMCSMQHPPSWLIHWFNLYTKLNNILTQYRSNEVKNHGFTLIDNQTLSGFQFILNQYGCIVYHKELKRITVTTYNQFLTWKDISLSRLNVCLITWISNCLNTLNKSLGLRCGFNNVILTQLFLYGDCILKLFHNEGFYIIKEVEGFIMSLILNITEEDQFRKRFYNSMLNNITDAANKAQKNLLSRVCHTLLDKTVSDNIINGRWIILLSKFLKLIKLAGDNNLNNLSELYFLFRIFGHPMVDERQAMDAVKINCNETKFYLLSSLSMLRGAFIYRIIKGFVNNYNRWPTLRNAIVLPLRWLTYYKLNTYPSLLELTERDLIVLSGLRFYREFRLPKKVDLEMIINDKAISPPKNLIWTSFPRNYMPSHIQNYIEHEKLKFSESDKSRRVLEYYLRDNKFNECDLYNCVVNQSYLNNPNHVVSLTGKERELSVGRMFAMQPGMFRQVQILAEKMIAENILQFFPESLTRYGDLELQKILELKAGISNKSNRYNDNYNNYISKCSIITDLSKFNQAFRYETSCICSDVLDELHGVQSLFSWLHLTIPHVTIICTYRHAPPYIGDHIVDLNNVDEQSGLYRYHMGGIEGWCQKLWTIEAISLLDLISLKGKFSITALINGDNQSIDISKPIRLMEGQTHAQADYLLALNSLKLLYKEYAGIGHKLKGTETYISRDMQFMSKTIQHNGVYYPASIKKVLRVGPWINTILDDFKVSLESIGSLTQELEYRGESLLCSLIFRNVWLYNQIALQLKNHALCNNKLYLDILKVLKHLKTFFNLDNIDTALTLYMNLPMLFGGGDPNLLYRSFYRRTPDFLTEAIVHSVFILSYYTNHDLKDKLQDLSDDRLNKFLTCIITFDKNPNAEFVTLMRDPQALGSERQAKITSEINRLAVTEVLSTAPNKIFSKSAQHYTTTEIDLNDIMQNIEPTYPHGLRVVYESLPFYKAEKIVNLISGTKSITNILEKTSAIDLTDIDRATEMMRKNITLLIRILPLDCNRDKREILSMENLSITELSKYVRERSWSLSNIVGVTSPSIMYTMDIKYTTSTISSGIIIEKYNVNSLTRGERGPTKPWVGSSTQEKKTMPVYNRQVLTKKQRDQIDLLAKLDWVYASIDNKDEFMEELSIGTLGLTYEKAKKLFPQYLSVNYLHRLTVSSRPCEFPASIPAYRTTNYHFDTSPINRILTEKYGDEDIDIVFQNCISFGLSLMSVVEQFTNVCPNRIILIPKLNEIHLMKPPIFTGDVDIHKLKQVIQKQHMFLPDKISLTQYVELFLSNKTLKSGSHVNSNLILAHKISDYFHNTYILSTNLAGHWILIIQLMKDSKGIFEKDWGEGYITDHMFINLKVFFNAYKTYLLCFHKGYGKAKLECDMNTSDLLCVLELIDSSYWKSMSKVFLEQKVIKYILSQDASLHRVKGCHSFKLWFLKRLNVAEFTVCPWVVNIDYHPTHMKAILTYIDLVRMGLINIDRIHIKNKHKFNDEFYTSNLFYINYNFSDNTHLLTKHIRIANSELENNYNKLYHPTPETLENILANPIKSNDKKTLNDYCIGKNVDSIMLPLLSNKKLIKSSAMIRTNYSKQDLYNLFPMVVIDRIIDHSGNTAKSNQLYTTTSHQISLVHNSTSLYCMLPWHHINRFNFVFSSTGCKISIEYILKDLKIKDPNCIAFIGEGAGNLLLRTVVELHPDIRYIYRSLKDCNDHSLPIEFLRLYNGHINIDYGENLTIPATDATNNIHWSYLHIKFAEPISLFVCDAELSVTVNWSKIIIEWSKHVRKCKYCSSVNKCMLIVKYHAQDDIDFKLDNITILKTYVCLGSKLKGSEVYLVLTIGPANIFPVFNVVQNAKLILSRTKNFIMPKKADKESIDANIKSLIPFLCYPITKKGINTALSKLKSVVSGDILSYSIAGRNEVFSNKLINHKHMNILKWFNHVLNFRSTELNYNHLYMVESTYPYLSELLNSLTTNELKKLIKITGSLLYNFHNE
# T1 sequence (P03421 whole entry, further chain): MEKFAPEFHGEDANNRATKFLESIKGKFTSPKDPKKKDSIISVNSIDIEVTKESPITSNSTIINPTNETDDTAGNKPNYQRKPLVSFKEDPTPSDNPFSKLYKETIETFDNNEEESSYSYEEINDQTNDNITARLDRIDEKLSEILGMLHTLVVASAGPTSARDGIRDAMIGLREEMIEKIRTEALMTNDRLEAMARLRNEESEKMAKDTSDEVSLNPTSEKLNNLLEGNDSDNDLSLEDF
SMILES,CC50 (MT-4 cells),IC50 [2],other results
"[N-]=[N+]=N[C@]1(CO)O[C@@H](c2ccc3c(N)nc(F)nn23)[C@H](F)[C@@H]1O [Example 22, (2R,3R,4R,5S)-5-(4-amino-2-fluoropyrrolo[2,1-f][1,2,4]triazin-7-yl)-2-azido-4-fluoro-2-(hydroxymethyl)tetrahydrofuran-3-ol]",32 µM,,"CC50 at 4 days [1]: > 100 µM; EC50 (RSV strain A2; [4]): 0.57 µM; EC50 (RSV strain A2; human respiratory syncytial virus, HEp-2 anti-RSV activity, read-out: EC50 (HEp-2 anti-RSV activity)): < 100 µM"
"[N-]=[N+]=N[C@]1(COP(=O)(O)OP(=O)(O)OP(=O)(O)O)O[C@@H](c2ccc3c(N)ncnn23)[C@H](F)[C@@H]1O [Example 27, ((2R,3R,4R,5S)-5-(4-aminopyrrolo[2,1-f][1,2,4]triazin-7-yl)-2-azido-4-fluoro-3-hydroxytetrahydrofuran-2-yl)methyl tetrahydrogen triphosphate]",,0.097 µM,
"Nc1ncnn2c([C@@H]3O[C@@](CO)(CCl)[C@@H](O)[C@H]3O)ccc12 [Example 26, (2R,3S,4R,5S)-5-(4-aminopyrrolo[2,1-f][1,2,4]triazin-7-yl)-2-(chloromethyl)-2-(hydroxymethyl)tetrahydrofuran-3,4-diol]",> 57 µM,,CC50 at 4 days [1]: 42 µM; CC50 at 5 days [3]: > 53 µM; EC50 (RSV strain A2; [4]): > 50 µM
"C=C[C@]1(COP(=O)(O)OP(=O)(O)OP(=O)(O)O)O[C@@H](c2ccc3c(N)ncnn23)[C@H](F)[C@@H]1O [Example 17, ((2R,3R,4R,5S)-5-(4-aminopyrrolo[2,1-f][1,2,4]triazin-7-yl)-4-fluoro-3-hydroxy-2-vinyltetrahydrofuran-2-yl)methyl tetrahydrogen triphosphate]",,0.56 µM,
"N#C[C@]1(CO)O[C@@H](c2ccc3c(N)ncnn23)[C@H](O)[C@@H]1O [Example 1, (2R,3S,4R,5S)-5-(4-aminopyrrolo[1,2-f][1,2,4]triazin-7-yl)-3,4-dihydroxy-2-(hydroxymethyl)tetrahydrofuran-2-carbonitrile]",> 53 µM,,"CC50 (HEp-2 cells): > 50 µM; EC50 (RSV strain A2; HEp-2 cells infected with RSV A2, 4 days, Cell TiterGlo, read-out: EC50): 7.3 µM"
"[N-]=[N+]=N[C@]1(COP(=O)(O)OP(=O)(O)OP(=O)(O)O)O[C@@H](c2ccc3c(N)ncnn23)[C@H](O)[C@@H]1O [Example 9, ((2R,3S,4R,5S)-5-(4-aminopyrrolo[2,1-f][1,2,4]triazin-7-yl)-2-azido-3,4-dihydroxytetrahydrofuran-2-yl)methyl tetrahydrogen triphosphate]",,0.12 µM,
"C[C@@]1(F)[C@H](O)[C@@H](COP(=O)(O)OP(=O)(O)OP(=O)(O)O)O[C@H]1c1ccc2c(N)ncnn12 [((2R,3R,4R,5S)-5-(4-aminopyrrolo[2,1-f][1,2,4]triazin-7-yl)-4-fluoro-3-hydroxy-4-methyltetrahydrofuran-2-yl)methyl tetrahydrogen triphosphate, reference compound]",,> 100 µM,
"[N-]=[N+]=N[C@]1(COP(=O)(O)OP(=O)(O)OP(=O)(O)O)O[C@@H](c2ccc3c(N)nc(F)nn23)[C@H](F)[C@@H]1O [Example 29, ((2R,3R,4R,5S)-5-(4-amino-2-fluoropyrrolo[2,1-f][1,2,4]triazin-7-yl)-2-azido-4-fluoro-3-hydroxytetrahydrofuran-2-yl)methyl tetrahydrogen triphosphate]",,0.08 µM,
"CC[C@]1(COP(=O)(O)OP(=O)(O)OP(=O)(O)O)O[C@@H](c2ccc3c(N)ncnn23)[C@H](F)[C@@H]1O [Example 18, ((2R,3R,4R,5S)-5-(4-aminopyrrolo[2,1-f][1,2,4]triazin-7-yl)-2-ethyl-4-fluoro-3-hydroxytetrahydrofuran-2-yl)methyl tetrahydrogen triphosphate]",,0.42 µM,

# From patent publication US9388208B2, “Pyrrolo[1,2-f][1,2,4]triazines useful for treating respiratory syncitial virus infections” (Gilead Sciences, Inc., priority 2013, dated 2016)
